Experimental findings from patent US12098145B2 (Libra Therapeutics, Inc., priority 2022, dated 2024) are described below.

The target in one assay is T1, TRPML1 (Homo sapiens, UniProt Q9GZU1).
T1 construct: expressed in transfected cells; host or cells: HEK T-REx cells stably expressing GCaMP6f and TRPML1
The assay can be described thus: Cellular TRPML1 assay (FLIPR, GCaMP6f calcium read-out). The assay is classed as cell-based. Put shortly: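 HEK T-REx cells stably expressing TRPML1 and GCaMP6f, seeded 24 h before in Optimem + 0.5% FBS. After ~10 min pre-incubation at room temperature, compounds in Ca2+-free Tyrode's buffer were injected on FLIPR Tetra (final DMSO 0.5%). Calcium fluorescence kinetics followed for 300 s.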

For the next assay, the system named is TFEB. The assay can be described thus: TFEB translocation assay (TFEB reporter in U2OS cells, imaging). The assay is classed as cell-based. As to conditions: Homo sapiens; U2OS cell line with TFEB reporter, 2 hours incubation, nucleus to cytoplasm ratio, normalized to Torin-1; read-out: TFEB Translocation pEC50 (converted). Put shortly:
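U2OS cells stably expressing mRFP-fused TFEB reporter, switched to Opti-MEM then treated 2 h at 37 °C with compounds (0.5% DMSO, 0.015% Tween 80). Hoechst-stained, PFA-fixed cells imaged at 20×; nucleus/cytoplasm intensity ratio per well normalized to Torin-1 (100%) and DMSO (0%).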

The mark [1] stands for this setting: HEKT-REx/GCaMP6f/TRPML1 cells, FLIPR TETRA, kinetic response over 300 seconds, read-out: TRPML1 FLIPR pEC50 (converted).

SMILES strings stand for the structures. Where two headings read alike, the source gives them in different places.

T1 sequence (Q9GZU1 whole entry): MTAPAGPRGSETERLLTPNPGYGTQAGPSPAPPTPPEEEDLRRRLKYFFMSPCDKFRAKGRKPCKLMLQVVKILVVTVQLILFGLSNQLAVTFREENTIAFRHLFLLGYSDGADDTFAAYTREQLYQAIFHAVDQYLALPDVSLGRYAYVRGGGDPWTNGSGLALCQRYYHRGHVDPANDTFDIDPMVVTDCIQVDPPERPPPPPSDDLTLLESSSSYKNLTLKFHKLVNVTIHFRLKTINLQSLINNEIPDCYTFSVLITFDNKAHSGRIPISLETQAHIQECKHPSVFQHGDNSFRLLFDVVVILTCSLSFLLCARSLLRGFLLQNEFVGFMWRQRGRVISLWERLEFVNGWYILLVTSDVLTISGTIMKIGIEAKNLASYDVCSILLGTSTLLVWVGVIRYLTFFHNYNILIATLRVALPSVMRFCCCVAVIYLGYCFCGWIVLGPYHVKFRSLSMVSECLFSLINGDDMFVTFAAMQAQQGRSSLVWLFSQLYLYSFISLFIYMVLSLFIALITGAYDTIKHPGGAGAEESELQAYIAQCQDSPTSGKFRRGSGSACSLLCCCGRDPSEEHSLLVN

For `COC1(C)CN(c2nc(C(=O)Nc3cc(C)c(OC4CC5CC(C5)C4)c(F)c3)c(CCF)o2)C1` (stereo not drawn) [Example 281, N-(4-(bicyclo[3.1.1]heptan-3-yloxy)-3-fluoro-5-methylphenyl)-5-(2-fluoroethyl)-2-(3-methoxy-3-methylazetidin-1-yl)oxazole-4-carboxamide], the EC50 at TRPML1 (setting [1]) and in the assay on TFEB was 0.01 to 1 µM each time.
`CCC1(CC)CN(c2nc(C(=O)Nc3cc(C)c(OC4CC5CC(C5)C4)c(F)c3)c(CCF)o2)C1` (stereo not drawn) [Example 282, N-(4-(bicyclo[3.1.1]heptan-3-yloxy)-3-fluoro-5-methylphenyl)-2-(3,3-diethylazetidin-1-yl)-5-(2-fluoroethyl)oxazole-4-carboxamide]: the EC50 at TRPML1 (setting [1]) and in the assay with TFEB was 0.01 to 1 µM in each case.
Turning to `CCC1(CC)CN(c2nc(C(=O)Nc3ccc(OC4CC5CC(C5)C4)c(F)c3)c(CCF)o2)C1` (stereo not drawn) [Example 283, N-(4-(bicyclo[3.1.1]heptan-3-yloxy)-3-fluorophenyl)-2-(3,3-diethylazetidin-1-yl)-5-(2-fluoroethyl)oxazole-4-carboxamide], the EC50 on TRPML1 (setting [1]) and with TFEB was 0.01 to 1 µM throughout.
Take `O=C(Nc1cc(F)c(OC2CC3CC(C3)C2)c(F)c1)c1nc(N2CCC3(CC3)C2)oc1CCF` (stereo not drawn) [Example 284, N-(4-(bicyclo[3.1.1]heptan-3-yloxy)-3,5-difluorophenyl)-5-(2-fluoroethyl)-2-(5-azaspiro[2.4]heptan-5-yl)oxazole-4-carboxamide]: the EC50 at TRPML1 (setting [1]) and in the assay on TFEB was 0.01 to 1 µM throughout.
Consider `CCC1(CC)CN(c2nc(C(=O)Nc3cc(C)c(O[C@@H]4C[C@@H]5C[C@@H]5C4)c(F)c3)c(CCF)o2)C1` [Example 285, N-(4-(cis-bicyclo[3.1.0]hexan-3-yloxy)-3-fluoro-5-methylphenyl)-2-(3,3-diethylazetidin-1-yl)-5-(2-fluoroethyl)oxazole-4-carboxamide], for which the EC50 on TRPML1 (setting [1]) and in the assay on TFEB was 0.01 to 1 µM in each case.
As for `CCC1(CC)CN(c2nc(C(=O)Nc3cc(F)c(OC4CC5CC(C5)C4)c(F)c3)c(CCF)o2)C1` (stereo not drawn) [Example 286, N-(4-(bicyclo[3.1.1]heptan-3-yloxy)-3,5-difluorophenyl)-2-(3,3-diethylazetidin-1-yl)-5-(2-fluoroethyl)oxazole-4-carboxamide], the EC50 on TRPML1 (setting [1]) and in the assay with TFEB was 0.01 to 1 µM throughout.
As to `CCC1(CC)CN(c2nc(C(=O)Nc3cc(F)c(O[C@@H]4C[C@@H]5C[C@@H]5C4)c(F)c3)c(CCF)o2)C1` [Example 287, N-(4-(cis-bicyclo[3.1.0]hexan-3-yloxy)-3,5-difluorophenyl)-2-(3,3-diethylazetidin-1-yl)-5-(2-fluoroethyl)oxazole-4-carboxamide], the EC50 on TRPML1 (setting [1]) and in the assay with TFEB was 0.01 to 1 µM in each case.
With `O=C(Nc1cc(F)c(O[C@@H]2C[C@@H]3C[C@@H]3C2)c(F)c1)c1nc(N2CCC3(CC3)C2)oc1CCF` [Example 288, N-(4-(cis-bicyclo[3.1.0]hexan-3-yloxy)-3,5-difluorophenyl)-5-(2-fluoroethyl)-2-(5-azaspiro[2.4]heptan-5-yl)oxazole-4-carboxamide], the EC50 at TRPML1 (setting [1]) and in the assay with TFEB was 0.01 to 1 µM throughout.
In the case of `CCC1(CC)CN(c2nc(C(=O)Nc3cc(C)c(N4C5CCCC4CC5)c(F)c3)c(CCF)o2)C1` [Example 289, N-(4-(8-azabicyclo[3.2.1]octan-8-yl)-3-fluoro-5-methylphenyl)-2-(3,3-diethylazetidin-1-yl)-5-(2-fluoroethyl)oxazole-4-carboxamide], the EC50 at TRPML1 and in the assay with TFEB was 0.01 to 1 µM in each case.
With `COC1(C)CN(c2nc(C(=O)Nc3cc(C)c(N4C5CCCC4CC5)c(F)c3)c(CCF)o2)C1` [Example 290], the EC50 at TRPML1 and with TFEB was 0.01 to 1 µM in each case.
With `CCC1(CC)CN(c2nc(C(=O)Nc3cc(C)c(O[C@@H]4C[C@@H]5C[C@@H]5C4)c(F)c3)c(COC)o2)C1` [Example 293, N-(4-(cis-bicyclo[3.1.0]hexan-3-yloxy)-3-fluoro-5-methylphenyl)-2-(3,3-diethylazetidin-1-yl)-5-(methoxymethyl)oxazole-4-carboxamide], the EC50 on TRPML1 (setting [1]) and with TFEB was 0.01 to 1 µM throughout.
In the case of `COCc1oc(N2CC(C)(OC)C2)nc1C(=O)Nc1cc(C)c(O[C@@H]2C[C@@H]3C[C@@H]3C2)c(F)c1` [Example 294, N-(4-(cis-bicyclo[3.1.0]hexan-3-yloxy)-3-fluoro-5-methylphenyl)-2-(3-methoxy-3-methylazetidin-1-yl)-5-(methoxymethyl)oxazole-4-carboxamide], the EC50 at TRPML1 (setting [1]) and in the assay on TFEB was 0.01 to 1 µM each time.
With `CCC1(CC)CN(c2nc(C(=O)Nc3cc(F)c(OC4CC5C[C@H]5C4)c(F)c3)c(COC)o2)C1` (stereo partly drawn) [Example 295, N-(4-(cis-bicyclo[3.1.0]hexan-3-yloxy)-3,5-difluorophenyl)-2-(3,3-diethylazetidin-1-yl)-5-(methoxymethyl)oxazole-4-carboxamide], the EC50 on TRPML1 (setting [1]) and in the assay with TFEB was 0.01 to 1 µM each time.
Take `COCc1oc(N2CC(C)(CO)C2)nc1C(=O)Nc1cc(C)c(OC2CC3CC(C3)C2)c(F)c1` (stereo not drawn) [Example 296, N-(4-(bicyclo[3.1.1]heptan-3-yloxy)-3-fluoro-5-methylphenyl)-2-(3-(hydroxymethyl)-3-methylazetidin-1-yl)-5-(methoxymethyl)oxazole-4-carboxamide]: the EC50 at TRPML1 (setting [1]) and with TFEB was 0.01 to 1 µM each time.
Consider `CCC1(CC)CN(c2nc(C(=O)Nc3cc(F)c(O[C@@H]4C[C@@H]5C[C@@H]5C4)c(F)c3)c(CN3CCCC3)o2)C1` [Example 299, N-(4-(cis-bicyclo[3.1.0]hexan-3-yloxy)-3,5-difluorophenyl)-2-(3,3-diethylazetidin-1-yl)-5-(pyrrolidin-1-ylmethyl)oxazole-4-carboxamide], for which the EC50 at TRPML1 (setting [1]) and in the assay on TFEB was 0.01 to 1 µM in each case.
With `CCN(C)Cc1oc(N2CC(CC)(OC)C2)nc1C(=O)Nc1cc(F)c(OC2CC3CC(C3)C2)c(F)c1` (stereo not drawn) [Example 302, N-(4-(bicyclo[3.1.1]heptan-3-yloxy)-3,5-difluorophenyl)-5-((ethyl(methyl)amino)methyl)-2-(3-ethyl-3-methoxyazetidin-1-yl)oxazole-4-carboxamide], the EC50 at TRPML1 (setting [1]) and in the assay on TFEB was 0.01 to 1 µM in each case.
For the compound `CCC1(OC)CN(c2nc(C(=O)Nc3cc(F)c(O[C@@H]4C[C@@H]5C[C@@H]5C4)c(F)c3)c(CN(C)C)o2)C1` [Example 303, N-(4-(cis-bicyclo[3.1.0]hexan-3-yloxy)-3,5-difluorophenyl)-5-((dimethylamino)methyl)-2-(3-ethyl-3-methoxyazetidin-1-yl)oxazole-4-carboxamide], the EC50 on TRPML1 (setting [1]) and with TFEB was 0.01 to 1 µM in each case.
Take `CCN(C)Cc1oc(N2CC(CC)(OC)C2)nc1C(=O)Nc1cc(F)c(O[C@@H]2C[C@@H]3C[C@@H]3C2)c(F)c1` [Example 304, N-(4-(cis-bicyclo[3.1.0]hexan-3-yloxy)-3,5-difluorophenyl)-5-((ethyl(methyl)amino)methyl)-2-(3-ethyl-3-methoxyazetidin-1-yl)oxazole-4-carboxamide]: the EC50 at TRPML1 (setting [1]) and in the assay on TFEB was 0.01 to 1 µM in each case.
